Measurements published in patent US11154058B2, “Fungicidal compositions” (SYNGENTA PARTICIPATIONS AG, priority 2017, dated 2021).

What was measured:
[1] = system: Puccinia recondita f. Sp. Tritici; assay: Puccinia recondita f. sp. tritici / wheat / leaf disc preventative (brown rust); type: in vivo; details: foliar, compared to untreated control, read-out: disease control
Method: Puccinia recondita f. Sp. Tritici/Wheat/Leaf Disc Preventative (Brown Rust) Wheat leaf segments cv. Kanzler were placed on agar in multiwell plates (24-well format) and sprayed with the formulated test compound or mixture composition diluted in water. The leaf disks were inoculated with a spore suspension of the fungus 1 day after application. The inoculated leaf segments were incubated at 19° C. and 75% rh under a light regime of 12 h light/12 h darkness in a climate cabinet and the activity of a compound or mixture composition was assessed as percent disease control compared to untreated when an appropriate level of disease damage appears in untreated check leaf segments (7-9 days after application).

[2] = system: Phakopsora pachyrhizi; assay: Phakopsora pachyrhizi / soybean / preventative (soybean rust); type: in vivo; details: foliar, soybean leaf disc, compared to untreated control
Method: Phakopsora pachyrhizi/Soybean/Preventative (Soybean Rust) Soybean leaf disks are placed on water agar in multiwell plates (24-well format) and sprayed with the formulated test compound diluted in water. One day after application leaf discs are inoculated by spraying a spore suspension on the lower leaf surface. After an incubation period in a climate cabinet of 24-36 hours in darkness at 20° C. and 75% rh leaf disc are kept at 20° C. with 12 h light/day and 75% rh. The activity of a compound is assessed as percent disease control compared to untreated when an appropriate level of disease damage appears in untreated check leaf disks (12-14 days after application).

[3] = system: Blumeria graminis f. Sp. Tritici (Erysiphe graminis f. Sp. Tritici); assay: Blumeria graminis f. sp. tritici / wheat / leaf disc preventative (powdery mildew on wheat); type: in vivo; details: foliar, compared to untreated control, read-out: disease control
Method: Blumeria graminis f. Sp. Tritici (Erysiphe graminis f. Sp. Tritici)/Wheat/Leaf Disc Preventative (Powdery Mildew on Wheat)
Wheat leaf segments cv. Kanzler were placed on agar in a multiwell plate (24-well format) and sprayed with the formulated test compound or mixture composition diluted in water. The leaf disks were inoculated by shaking powdery mildew infected plants above the test plates 1 day after application. The inoculated leaf disks were incubated at 20° C. and 60% rh under a light regime of 24 h darkness followed by 12 h light/12 h darkness in a climate chamber and the activity of a compound or mixture composition was assessed as percent disease control compared to untreated when an appropriate level of disease damage appears on untreated check leaf segments (6-8 days after application).

[4] = system: Puccinia recondita f. Sp. Tritici; assay: Puccinia recondita f. sp. tritici / wheat / leaf disc curative (brown rust); type: in vivo; details: foliar, compared to untreated control, read-out: disease control
Method: Puccinia recondita f. Sp. Tritici/Wheat/Leaf Disc Curative (Brown Rust)
Wheat leaf segments cv. Kanzler are placed on agar in multiwell plates (24-well format). The leaf segments are inoculated with a spore suspension of the fungus. Plates were stored in darkness at 19° C. and 75% rh. The formulated test compound or mixture composition diluted in water was applied 1 day after inoculation. The leaf segments were incubated at 19° C. and 75% rh under a light regime of 12 h light/12 h darkness in a climate cabinet and the activity of a compound or mixture composition was assessed as percent disease control compared to untreated when an appropriate level of disease damage appears in untreated check leaf segments (6-8 days after application).

| Compound | melting point | pest or weed control at 200 ppm [1] | pest or weed control at 200 ppm [2] | pest or weed control at 200 ppm [3] | pest or weed control at 200 ppm [4] |
| --- | --- | --- | --- | --- | --- |
| CCO/N=C(\C)CC(O)(c1cc(C)c(/N=C/N(C)CC)cc1OC)C(F)(F)F (centres unmarked) [Q.001, N′-[4-[(3E)-3-ethoxyimino-1-hydroxy-1-(trifluoromethyl)butyl]-5-methoxy-2-methyl-phenyl]-N-ethyl-N-methyl-formamidine] |  | ≥ 80% | ≥ 80% | ≥ 80% | ≥ 80% |
| CCCCOCC(O)(c1cc(C)c(/N=C/N(C)CC)cc1OC)C(F)(F)F (centres unmarked) [Q.002, N′-[4-[1-(butoxymethyl)-2,2,2-trifluoro-1-hydroxy-ethyl]-5-methoxy-2-methyl-phenyl]-N-ethyl-N-methyl-formamidine] |  | ≥ 80% | ≥ 80% | ≥ 80% | ≥ 80% |
| CCN(C)/C=N/c1cc(OC)c(C(O)(COCC2CCC2)C(F)(F)F)cc1C (centres unmarked) [Q.004, N′-[4-[1-(cyclobutylmethoxymethyl)-2,2,2-trifluoro-1-hydroxy-ethyl]-5-methoxy-2-methyl-phenyl]-N-ethyl-N-methyl-formamidine] |  | ≥ 80% | ≥ 80% | ≥ 80% | ≥ 80% |
| CCN(C)/C=N/c1cc(OC)c(C(O)(COC2CCCC2)C(F)(F)F)cc1C (centres unmarked) [Q.005, N′-[4-[1-(cyclopentoxymethyl)-2,2,2-trifluoro-1-hydroxy-ethyl]-5-methoxy-2-methyl-phenyl]-N-ethyl-N-methyl-formamidine] |  |  | ≥ 80% |  |  |
| CCCCC(O)(c1cc(C)c(/N=C/N(C)C(C)C)cc1OC)C(F)(F)F (centres unmarked) [Q.007, N′-[4-[1-hydroxy-1-(trifluoromethyl)pentyl]-5-methoxy-2-methyl-phenyl]-N-isopropyl-N-methyl-formamidine] |  | ≥ 80% | ≥ 80% | ≥ 80% | ≥ 80% |

More lines, main results first:

| melting point | Compound | pest or weed control at 200 ppm [1] | pest or weed control at 200 ppm [2] | pest or weed control at 200 ppm [3] | pest or weed control at 200 ppm [4] |
| --- | --- | --- | --- | --- | --- |
| 90 to 93 °C | COc1cc(/N=C/N(C)C(C)C)c(C)cc1C(O)(C1CC1)C(F)(F)F (centres unmarked) [Q.003, N′-[4-(1-cyclopropyl-2,2,2-trifluoro-1-hydroxy-ethyl)-5-methoxy-2-methyl-phenyl]-N-isopropyl-N-methyl-formamidine] | ≥ 80% | ≥ 80% | ≥ 80% | ≥ 80% |
| 90 to 95 °C | C=C(C)CC(O)(c1cc(C)c(/N=C/N(C)C(C)C)cc1OC)C(F)(F)F (centres unmarked) [Q.006, N′-[4-[1-hydroxy-3-methyl-1-(trifluoromethyl)but-3-enyl]-5-methoxy-2-methyl-phenyl]-N-isopropyl-N-methyl-formamidine] | ≥ 80% | ≥ 80% | ≥ 80% | ≥ 80% |
| 110 to 111 °C | COc1cc(/N=C/N(C)C(C)C)c(C)cc1C(O)(c1ccccc1)C(F)(F)F (centres unmarked) [Q.008, N-isopropyl-N′-[5-methoxy-2-methyl-4-(2,2,2-trifluoro-1-hydroxy-1-phenyl-ethyl)phenyl]-N-methyl-formamidine] | ≥ 80% | ≥ 80% |  | ≥ 80% |
| 115 to 117 °C | CCN(C)/C=N/c1cc(OC)c(C(O)(c2ccccc2C)C(F)(F)F)cc1C (centres unmarked) [Q.009, N-ethyl-N′-[5-methoxy-2-methyl-4-[2,2,2-trifluoro-1-hydroxy-1-(o-tolyl)ethyl]phenyl]-N-methyl-formamidine] | ≥ 80% | ≥ 80% | ≥ 80% | ≥ 80% |
| 107 to 108 °C | CCN(C)/C=N/c1cc(OC)c(C(O)(c2cc(F)cc(F)c2)C(F)(F)F)cc1C (centres unmarked) [Q.010, N′-[4-[1-(3,5-difluorophenyl)-2,2,2-trifluoro-1-hydroxy-ethyl]-5-methoxy-2-methyl-phenyl]-N-ethyl-N-methyl-formamidine] | ≥ 80% | ≥ 80% | ≥ 80% | ≥ 80% |
